Legend:
[1] = biological target: T1, SSTR2 (Homo sapiens, UniProt P30874, F208A); assay: cAMP accumulation assay (agonist-induced inhibition of forskolin-stimulated cAMP), SSTR2, HEK293F; assay type: cell-based; conditions: SSTR2 mutant F208^5.38A; mean ± SEM;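 note: transiently transfected cells exposed to 2 µM forskolin and a ligand concentration series for 40 min at room temperature in IBMX-containing HBSS, then cAMP quantified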
T1 construct: expressed in transfected cells; host or cells: HEK293F
T1 sequence (P30874 whole entry F208A): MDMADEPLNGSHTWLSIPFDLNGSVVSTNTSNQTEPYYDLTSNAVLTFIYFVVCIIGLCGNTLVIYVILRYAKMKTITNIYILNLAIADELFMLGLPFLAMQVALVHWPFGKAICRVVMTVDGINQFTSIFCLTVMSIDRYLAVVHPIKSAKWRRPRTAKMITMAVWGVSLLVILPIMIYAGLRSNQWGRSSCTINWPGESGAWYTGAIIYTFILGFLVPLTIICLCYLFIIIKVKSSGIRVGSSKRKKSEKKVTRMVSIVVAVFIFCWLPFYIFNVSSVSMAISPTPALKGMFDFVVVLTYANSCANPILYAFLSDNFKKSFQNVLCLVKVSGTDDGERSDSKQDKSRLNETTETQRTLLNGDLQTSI
Procedure: (§1) HEK293F cells were transiently transfected with WT or mutant SSTR2/SSTR4 using transfection reagent (PEI MAX 2000, Polysciences) and incubated at 37 °C in 5% CO2. Forty-eight hours after transfection, cells were centrifuged and resuspended in stimulation buffer (Hanks’ balanced salt solution (HBSS) supplemented with 5 mM HEPES, 0.5 mM IBMX and 0.1% (w/v) bovine serum albumin (BSA), pH 7.4) to a density of 200,000 cells/mL and added to 384-well white plates (PerkinElmer, 1000 cells/well). cAMP accumulation was measured by a LANCE Ultra cAMP kit (PerkinElmer) according to the manufacturer’s instructions. In brief, transfected cells were incubated for 40 min in stimulation buffer with 2.5 μL forskolin (SSTR2: 2 μM; SSTR4: 4 μM) and gradient concentration of ligand at RT. The reactions were stopped by addition of lysis buffer containing 5 μL Eu-cAMP tracer and 5 μL ULight-anti-cAMP. Plates were then incubated for 60 min at RT and time-resolved FRET signals were measured at 620 nm and 665 nm by an EnVision multilabel plate reader (PerkinElmer). Data were analyzed in GraphPad PRISM 8 and all values were normalized to the WT for each ligand. All outcomes were repeated at least three times.
(§2) aMutants represent that mutations were introduced separately into the WT receptors and
(§3) transiently expressed in HEK 293F cells.
(§4) bThe EC50 ratio was shown as EC50(mutant)/EC50(WT), indicating the shift between the WT
(§5) and mutant curves, reflecting the effect of the mutations on receptor signaling.
(§6) cData are shown as mean ± S.E.M. from at least three independent experiments
(§7) performed in technical triplicate. One-way ANOVA was performed followed by
(§8) Dunnett’s post-test and compared with WT. The P value was defined as: *P<0.05;
(§9) d The span is defined as the window between the maximal agonists response (Emax) and
(§10) e Sample size; the number of independent experiments performed in technical triplicate.
(§11) f Receptor expression level of HEK 293F cells was determined independently by flow
(§12) cytometry with anti-FLAG antibody and shown as per cent compared to the WT.

[2] = biological target: T2, SSTR2 (Homo sapiens, UniProt P30874, I284A); assay: as above; assay type: cell-based; conditions: SSTR2 mutant I284^ECL3A; mean ± SEM
T2 construct: expressed in transfected cells; host or cells: HEK293F
T2 sequence (P30874 whole entry I284A): as the sequence (P30874 whole entry F208A) above, with A208F, I284A counted along it
Procedure: as §1, §2, §3, §4, §5, §6, §7, §8, §9, §10, §11, §12

[3] = biological target: T3, SSTR2 (Homo sapiens, UniProt P30874, K291A); assay: as above; assay type: cell-based; conditions: SSTR2 mutant K291^7.32A; mean ± SEM
T3 construct: expressed in transfected cells; host or cells: HEK293F
T3 sequence (P30874 whole entry K291A): as the sequence (P30874 whole entry F208A) above, with A208F, K291A counted along it
Procedure: as §1, §2, §3, §4, §5, §6, §7, §8, §9, §10, §11, §12

[4] = biological target: T4, SSTR2 (Homo sapiens, UniProt P30874, N276A); assay: as above; assay type: cell-based; conditions: SSTR2 mutant N276^6.55A; mean ± SEM
T4 construct: expressed in transfected cells; host or cells: HEK293F
T4 sequence (P30874 whole entry N276A): as the sequence (P30874 whole entry F208A) above, with A208F, N276A counted along it
Procedure: as §1, §2, §3, §4, §5, §6, §7, §8, §9, §10, §11, §12

[5] = biological target: T5, SSTR2 (Homo sapiens, UniProt P30874, P286A); assay: as above; assay type: cell-based; conditions: SSTR2 mutant P286^ECL3A; mean ± SEM
T5 construct: expressed in transfected cells; host or cells: HEK293F
T5 sequence (P30874 whole entry P286A): as the sequence (P30874 whole entry F208A) above, with A208F, P286A counted along it
Procedure: as §1, §2, §3, §4, §5, §6, §7, §8, §9, §10, §11, §12

[6] = biological target: T6, SSTR2 (Homo sapiens, UniProt P30874, S316D/V106E); assay: as above; assay type: cell-based; conditions: Construct 2* SSTR2; mean ± SEM
T6 construct: expressed in transfected cells; host or cells: HEK293F
T6 sequence (P30874 1-359 V106E/S316D): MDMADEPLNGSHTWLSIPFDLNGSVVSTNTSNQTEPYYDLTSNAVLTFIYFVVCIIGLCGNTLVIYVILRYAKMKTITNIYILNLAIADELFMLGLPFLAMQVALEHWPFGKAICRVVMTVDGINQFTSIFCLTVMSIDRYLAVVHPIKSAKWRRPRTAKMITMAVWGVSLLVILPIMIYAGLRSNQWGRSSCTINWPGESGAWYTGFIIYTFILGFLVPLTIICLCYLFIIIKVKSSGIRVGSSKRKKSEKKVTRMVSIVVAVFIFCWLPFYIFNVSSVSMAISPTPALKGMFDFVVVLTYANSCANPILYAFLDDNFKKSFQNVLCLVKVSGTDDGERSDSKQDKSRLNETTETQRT
Procedure: as §1, §2, §3, §4, §5, §6, §7, §8, §9, §10, §11, §12

[7] = biological target: T7, SSTR2 (Homo sapiens, UniProt P30874, V298A); assay: as above; assay type: cell-based; conditions: SSTR2 mutant V298^7.39A; mean ± SEM
T7 construct: expressed in transfected cells; host or cells: HEK293F
T7 sequence (P30874 whole entry V298A): as the sequence (P30874 whole entry F208A) above, with A208F, V298A counted along it
Procedure: as §1, §2, §3, §4, §5, §6, §7, §8, §9, §10, §11, §12

[8] = test system: SSTR2; assay: as above; assay type: cell-based, human; conditions: EC50(mutant)/EC50(WT)
Procedure: as §1, §2, §3, §4, §5, §6, §7, §8, §9, §10, §11, §12

[9] = biological target: SSTR2 (Homo sapiens, UniProt P30874); assay: Whole cell binding assay, SSTR2, competition with 125I-Tyr11-SST14, CHO-K1; conditions: WT SSTR2, mean ± SEM;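 note: Cell-bound radioactivity in lysed CHO-K1 cells read by scintillation counting, each mutation introduced singly into the WT receptor, at least three independent experiments run in technical triplicate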
SSTR2 (Homo sapiens, UniProt P30874), sequence (P30874 whole entry): as the sequence (P30874 whole entry F208A) above, with A208F counted along it
Procedure: (§13) For SSTR2 and SSTR4, CHO-K1 cells were cultured in F12 medium with 10% FBS and seeded at a density of 30,000 cells/well in Isoplate-96 plates (PerkinElmer). Twenty-four hours after transfection with the WT or mutant SSTR2/SSTR4, CHO-K1 cells were washed twice and incubated with blocking buffer (F12 supplemented with 25 mM HEPES and 0.1% (w/v) BSA, pH 7.4) for 2 h at 37 °C. […] Following incubation, cells were washed three times with ice-cold PBS and lysed by 50 μL lysis buffer (PBS supplemented with 20 mM Tris-HCl, 1% Triton X-100, pH 7.4). The radioactivity was subsequently counted (counts/min, CPM) in a scintillation counter (MicroBeta[2] Plate Counter, PerkinElmer) using a scintillation cocktail (OptiPhaseSuperMix, PerkinElmer). Data were analyzed by nonlinear regression using GraphPad PRISM 8.
(§14) aMutants represent that all mutations were introduced separately into the WT receptors
and expressed in CHO K1 cells.
(§15) bThe IC50 ratio was shown as IC50(mutant)/IC50(WT), indicating the shift between the WT
(§16) and mutant curves, reflecting the effect of the mutations on ligand binding.
(§17) cData are shown as mean ± S.E.M. form at least three independent experiments
as §7
(§18) Dunnett’s post-test and compared with WT.
as §9, §10

[10] = biological target: SSTR2 (Homo sapiens, UniProt P30874, D122A); assay: as above; conditions: SSTR2 mutant D122^3.32A; mean ± SEM
SSTR2 (Homo sapiens, UniProt P30874, D122A), sequence (P30874 whole entry D122A): as the sequence (P30874 whole entry F208A) above, with D122A, A208F counted along it
Procedure: as §13, §14
and expressed in CHO K1 cells.
as §15, §16, §17, §7, §18, §9, §10

[11] = biological target: SSTR2 (Homo sapiens, UniProt P30874, F272A); assay: as above; conditions: SSTR2 mutant F272^6.51A; mean ± SEM
SSTR2 (Homo sapiens, UniProt P30874, F272A), sequence (P30874 whole entry F272A): as the sequence (P30874 whole entry F208A) above, with A208F, F272A counted along it
Procedure: as §13, §14
and expressed in CHO K1 cells.
as §15, §16, §17, §7, §18, §9, §10

[12] = biological target: SSTR2 (Homo sapiens, UniProt P30874, F275A); assay: as above; conditions: SSTR2 mutant F275^6.54A; mean ± SEM
SSTR2 (Homo sapiens, UniProt P30874, F275A), sequence (P30874 whole entry F275A): as the sequence (P30874 whole entry F208A) above, with A208F, F275A counted along it
Procedure: as §13, §14
and expressed in CHO K1 cells.
as §15, §16, §17, §7, §18, §9, §10

[13] = biological target: SSTR2 (Homo sapiens, UniProt P30874, F294A); assay: as above; conditions: SSTR2 mutant F294^7.35A; mean ± SEM
SSTR2 (Homo sapiens, UniProt P30874, F294A), sequence (P30874 whole entry F294A): as the sequence (P30874 whole entry F208A) above, with A208F, F294A counted along it
Procedure: as §13, §14
and expressed in CHO K1 cells.
as §15, §16, §17, §7, §18, §9, §10

[14] = biological target: SSTR2 (Homo sapiens, UniProt P30874, Q102A); assay: as above; conditions: SSTR2 mutant Q102^2.63A; mean ± SEM
SSTR2 (Homo sapiens, UniProt P30874, Q102A), sequence (P30874 whole entry Q102A): as the sequence (P30874 whole entry F208A) above, with Q102A, A208F counted along it
Procedure: as §13, §14
and expressed in CHO K1 cells.
as §15, §16, §17, §7, §18, §9, §10

[15] = biological target: SSTR2 (Homo sapiens, UniProt P30874, Q126A); assay: as above; conditions: SSTR2 mutant Q126^3.36A; mean ± SEM
SSTR2 (Homo sapiens, UniProt P30874, Q126A), sequence (P30874 whole entry Q126A): as the sequence (P30874 whole entry F208A) above, with Q126A, A208F counted along it
Procedure: as §13, §14
and expressed in CHO K1 cells.
as §15, §16, §17, §7, §18, §9, §10

[16] = biological target: SSTR2 (Homo sapiens, UniProt P30874, T194A); assay: as above; conditions: SSTR2 mutant T194^ECL2A; mean ± SEM
SSTR2 (Homo sapiens, UniProt P30874, T194A), sequence (P30874 whole entry T194A): as the sequence (P30874 whole entry F208A) above, with T194A, A208F counted along it
Procedure: as §13, §14
and expressed in CHO K1 cells.
as §15, §16, §17, §7, §18, §9, §10

[17] = biological target: SSTR2 (Homo sapiens, UniProt P30874, T212A); assay: as above; conditions: SSTR2 mutant T212^5.42A; mean ± SEM
SSTR2 (Homo sapiens, UniProt P30874, T212A), sequence (P30874 whole entry T212A): as the sequence (P30874 whole entry F208A) above, with A208F, T212A counted along it
Procedure: as §13, §14
and expressed in CHO K1 cells.
as §15, §16, §17, §7, §18, §9, §10

[18] = biological target: SSTR2 (Homo sapiens, UniProt P30874, Y205A); assay: as above; conditions: SSTR2 mutant Y205^5.35A; mean ± SEM
SSTR2 (Homo sapiens, UniProt P30874, Y205A), sequence (P30874 whole entry Y205A): as the sequence (P30874 whole entry F208A) above, with Y205A, A208F counted along it
Procedure: as §13, §14
and expressed in CHO K1 cells.
as §15, §16, §17, §7, §18, §9, §10

[19] = biological target: SSTR2 (Homo sapiens, UniProt P30874, Y302A); assay: as above; conditions: SSTR2 mutant Y302^7.43A; mean ± SEM
SSTR2 (Homo sapiens, UniProt P30874, Y302A), sequence (P30874 whole entry Y302A): as the sequence (P30874 whole entry F208A) above, with A208F, Y302A counted along it
Procedure: as §13, §14
and expressed in CHO K1 cells.
as §15, §16, §17, §7, §18, §9, §10

[20] = test system: SSTR2; assay: as above; conditions: for IC50 ratio: IC50(mutant)/IC50(WT)
Procedure: as §13, §14
and expressed in CHO K1 cells.
as §15, §16, §17, §7, §18, §9, §10

In the case of `C[C@@H](c1c[nH]c2ccccc12)[C@@H](NC(=O)N1CCC(n2c(=O)[nH]c3ccccc32)CC1)C(=O)N[C@@H](CCCCN)C(=O)OC(C)(C)C` [L-054,522], the Span [1] is reported as 81±5 % of WT, the “pEC50 ± SEM” value [1] is reported as 9.34±0.13 and the Span [2] is reported as 84±7 % of WT. For the same compound, the “pEC50 ± SEM” value [2] was 9.07±0.22, the “pEC50 ± SEM” value [3] was 9.02±0.12 and the Span [4] was 80±5 % of WT. For the same compound, the “pEC50 ± SEM” value [4] was 8.47±0.15, the Span [5] was 96±7 % of WT and the “pEC50 ± SEM” value [5] was 8.83±0.18. For the same compound, the Span [6] was 76±6 % of WT, the “pEC50 ± SEM” value [6] was 9.28±0.17 and the Span [7] was 131±9 % of WT. For the same compound, the “pEC50 ± SEM” value [7] was 8.68±0.16, the EC50 ratio ([8]; Construct 2* SSTR2) was 2 and the EC50 ratio ([8]; SSTR2 mutant D122^3.32A) was 191. For the same compound, the EC50 ratio ([8]; SSTR2 mutant F208^5.38A) was 2, the EC50 ratio ([8]; SSTR2 mutant F272^6.51A) was 64 and the EC50 ratio ([8]; SSTR2 mutant F275^6.54A) was 5. It also gave an EC50 ratio ([8]; SSTR2 mutant F294^7.35A) of 20, an EC50 ratio ([8]; SSTR2 mutant I284^ECL3A) of 4 and an EC50 ratio ([8]; SSTR2 mutant K291^7.32A) of 4. For the same compound, the EC50 ratio ([8]; SSTR2 mutant N276^6.55A) was 15, the EC50 ratio ([8]; SSTR2 mutant P286^ECL3A) was 7 and the EC50 ratio ([8]; SSTR2 mutant Q102^2.63A) was 2. It also gave an EC50 ratio ([8]; SSTR2 mutant Q126^3.36A) of 3, an EC50 ratio ([8]; SSTR2 mutant T194^ECL2A) of 3 and an EC50 ratio ([8]; SSTR2 mutant T212^5.42A) of 5. It also gave an EC50 ratio ([8]; SSTR2 mutant V298^7.39A) of 10, an EC50 ratio ([8]; SSTR2 mutant Y205^5.35A) of 0.05 and an EC50 ratio ([8]; SSTR2 mutant Y302^7.43A) of 10. For the same compound, the “pKi ± SEM” value ([9]; competition with 125I-SST-14) was 8.53 ± 0.13, the Span [9] was 100±6 % of WT and the “pIC50 ± SEM” value ([9]; at least three independent experiments) was 8.53±0.13. The Span [10] was 15±7 % of WT, the Span [11] was 13±3 % of WT and the Span [12] was 33±3 % of WT. For the same compound, the “pIC50 ± SEM” value [12] was 7.57±0.23, the Span [13] was 19±2 % of WT and the Span [14] was 20±5 % of WT. For the same compound, the “pIC50 ± SEM” value [14] was 6.35±0.52, the Span [15] was 15±5 % of WT and the Span [16] was 22±6 % of WT. The “pIC50 ± SEM” value [16] was 7.45±0.59, the Span [17] was 94±5 % of WT and the “pIC50 ± SEM” value [17] was 8.49±0.11. The Span [18] was 70±5 % of WT, the “pIC50 ± SEM” value [18] was 8.89±0.15 and the Span [19] was 15±2 % of WT. The IC50 ratio ([20]; Construct 2 SSTR2) was 3, the IC50 ratio ([20]; SSTR2 mutant F275^6.54A) was 9 and the IC50 ratio ([20]; SSTR2 mutant Q102^2.63A) was 152. It also gave an IC50 ratio ([20]; SSTR2 mutant T194^ECL2A) of 12, an IC50 ratio ([20]; SSTR2 mutant T212^5.42A) of 1 and an IC50 ratio ([20]; SSTR2 mutant Y205^5.35A) of 0.4. The IC50 ratio ([20]; WT SSTR2) was 1 and the “effect of construct modifications on binding and signaling” value ([20]; crystallization construct vs WT SSTR2) was “little effect on L-054,522 binding and signaling”.
